Where two headings read alike, the source gives them in different places.
Experiments:
[1] = tested on: barnyard grass Echinochloa crusgalli; assay: Petri dish culture, growth inhibition of root and stalk of barnyard grass; assay type: in vivo; conditions: 5 days; for inhibition at 1 µg/mL / inhibition at 10 µg/mL: Echinochloa crus-galli, 120 h
Procedure: (§1) The synthesized compounds were tested for the herbicidal activity on model plants including a monocotyledon (barnyard grass) and a dicotyledon (rape) by the reported Petri dish culture method. The percent inhibitory ratios against the growth of root and stalk of barnyard grass and rape at different dosage concentrations were calculated, and the compounds with appreciable inhibitory potencies are selected and shown in Table 1 and Table 2. Several features of the inhibitory activities can be derived. First, all the compounds have stronger inhibition against the growth of the dicotyledon rape than against the monocotyledon barnyard grass, showing appreciable selectivity.
(§2) The herbicidal activity was examined for the growth inhibition effect of the dicotyledon rape Brassica napus and the monocotyledon barnyard grass Echinochloa crusgalli, using the standard Petri dish test and the pre-emergence treatment procedure. […] Nine mL of the solution was added in a Petri dish of 9 cm diameter and two pieces of filter paper were placed on the dish bottom. Twenty seeds each of rape and barnyard grass were placed on the filter paper. The covered Petri dish was transferred into an artificial climate incubator (MGC-400H, Shantou Keyi Co., Ltd., China), where the conditions were controlled at temperature 23 ± 1 °C, humidity 60 ± 5%, light intensity 10 Klux, and photoperiod 12 h/day. The incubation was continued for 5 days, then the lengths of 10 roots and 10 stems for each type of plant were measured and the mean values were calculated. The percent inhibitory ratios were calculated relative to control plants exposing to distilled water instead of the compound solution.

rape Brassica napus = assay: Petri dish culture, growth inhibition of root and stalk of rape; assay type: in vivo; conditions: 5 days; for inhibition at 1 µg/mL / inhibition at 10 µg/mL: Brassica napus, 120 h
Procedure: as §1, §2

[2] = 1 mg/L, root growth, read-out: Relative inhibition, root
[3] = 1 mg/L, stalk growth, read-out: Relative inhibition, stalk
[4] = 10 mg/L, root growth, read-out: Relative inhibition, root
[5] = 10 mg/L, stalk growth, read-out: Relative inhibition, stalk

Row | Molecule | Relative inhibition, root ([1]; 1 mg/L, root growth) [%] | Relative inhibition, stalk ([1]; 1 mg/L, stalk growth) [%] | Relative inhibition, root ([1]; 10 mg/L, root growth) [%] | Relative inhibition, stalk ([1]; 10 mg/L, stalk growth) [%] | Relative inhibition, root (rape Brassica napus; 1 mg/L, root growth) [%] | Relative inhibition, stalk (rape Brassica napus; 1 mg/L, stalk growth) [%] | Relative inhibition, root (rape Brassica napus; 10 mg/L, root growth) [%] | Relative inhibition, stalk (rape Brassica napus; 10 mg/L, stalk growth) [%] | inhibition at 1 µg/mL [1, 2] [%] | inhibition at 1 µg/mL [1, 3] [%] | inhibition at 10 µg/mL [1, 4] [%] | inhibition at 10 µg/mL [1, 5] [%] | inhibition at 1 µg/mL (rape Brassica napus; [2]) [%] | inhibition at 1 µg/mL (rape Brassica napus; [3]) [%] | inhibition at 10 µg/mL (rape Brassica napus; [4]) [%] | inhibition at 10 µg/mL (rape Brassica napus; [5]) [%] | melting point [°C]
1 | 7-Chloro-2-((2,4-dichlorophenoxy)methyl)-3-methyl-3H-quinazolin-4-one [4r] | 12.3 | 1.4 | 34.6 | 0.0 | 32.3 | −8.8 | 44.5 | −2.4 | – | – | – | – | – | – | – | – | –
2 | O=c1oc(COc2ccccc2)nc2ccccc12 [3a, 2-(Phenoxymethyl)-4H-3,1-benzoxazin-4-one] | – | – | – | – | – | – | – | – | 19.3 | -29.6 | 64.8 | 26.9 | 71.2 | 27 | 89.1 | 79.4 | 87.9 to 92.1
3 | O=c1oc(COc2ccccc2)nc2cccc(Cl)c12 [3b, 5-Chloro-2-(phenoxymethyl)-4H-3,1-benzoxazin-4-one] | – | – | – | – | – | – | – | – | 47.2 | 0.5 | 56.3 | 24.1 | 59.6 | 39.2 | 83.3 | 51.9 | 118.3 to 120.9
4 | O=c1oc(COc2ccccc2)nc2ccc(Cl)cc12 [3c, 6-Chloro-2-(phenoxymethyl)-4H-3,1-benzoxazin-4-one] | – | – | – | – | – | – | – | – | 23.7 | 0.3 | 62.6 | 46.7 | 45.4 | 26.7 | 83.9 | 64.6 | 113.1 to 115.2
5 | O=c1oc(COc2ccccc2)nc2cc(Cl)ccc12 [3d, 7-Chloro-2-(phenoxymethyl)-4H-3,1-benzoxazin-4-one] | – | – | – | – | – | – | – | – | 41.9 | -23.6 | 62.3 | 28.3 | 75.5 | 44.9 | 93.5 | 71.6 | 117.3 to 119.9
6 | Cc1ccc2nc(COc3ccccc3)oc(=O)c2c1 [3e, 6-Methyl-2-(phenoxymethyl)-4H-3,1-benzoxazin-4-one] | – | – | – | – | – | – | – | – | 26.1 | -17.2 | 71.4 | 31.1 | 55.3 | 11.6 | 92.3 | 81.6 | 133.3 to 135.1
7 | COc1cc2nc(COc3ccccc3)oc(=O)c2cc1OC [3f, 6,7-Dimethoxy-2-(phenoxymethyl)-4H-3,1-benzoxazin-4-one] | – | – | – | – | – | – | – | – | 35.5 | 32 | 63 | 46.7 | 94.9 | 32.9 | 71.1 | 63.3 | 132.1 to 134.3
8 | O=c1oc(COc2ccc(Cl)cc2)nc2cc(Cl)ccc12 [3j, 7-Chloro-2-((4-chlorophenoxy)methyl)-4H-3,1-benzoxazin-4-one] | – | – | – | – | – | – | – | – | 43.6 | 12.8 | 92.3 | 31.1 | 91.4 | 59.5 | 100 | 91.1 | 189.9 to 191.8
9 | Cc1ccc2nc(COc3ccc(Cl)cc3)oc(=O)c2c1 [3k, 2-((4-Chlorophenoxy)methyl)-6-methyl-4H-3,1-benzoxazin-4-one] | – | – | – | – | – | – | – | – | 48.4 | 18.2 | 77.1 | -8.8 | 84.7 | 29.3 | 100 | 82.1 | 143.7 to 145.6

From PMC6268642, “Facile Synthesis and Herbicidal Evaluation of 4H-3,1-Benzoxazin-4-ones and 3H-Quinazolin-4-ones with 2-Phenoxymethyl Substituents” (Molecules, 2012)
